Assay results taken from patent US20130287918A1, “MICROBICIDAL COMPOSITION” (DUPONT NUTRITION DIOSCIENCES APS, priority 2010, published 2013).

What was measured:
[1] = system: pool of 4 yeast species; test: Ranch dressing challenge study, yeast count on YGC agar; format: cell-based; conditions: for Cell counts on YGC-agar to determine the yeast growth: 0.1% in Ranch dressing, inoculation 500 CFU/g, 20° C.
Description: Samples of the regular ranch dressing (formula in table 24) with and without the experimental blend were produced in the Danisco Culinary Application Laboratory, Brabrand.
Each batch was split (scheme table 23) in probes of 90 gram and placed in sterile jars. 36 probes of each batch were inoculated with the desired level of yeast and 5 probes of each batch were inoculated with mould spores, respectively at a targeted inoculation rate of 500 to 1000 CFU/g.
(§1) The viscous products were thoroughly mixed (2 minutes) within 10 minutes of inoculation to ensure that the inoculum was evenly distributed throughout the product. One sample remained un-inoculated and was used as negative control to monitor the native contamination flora. All samples were incubated at ambient temperature (20° C.) and assayed for yeast, plated on an appropriate yeast medium, until confirmed failure (≧1.0E+05 CFU/g) or until visible mould growth, respectively. In parallel, the growth of lactic acid bacteria and total cell count were monitored on MRS and PCA in all the batches and the non-inoculated blind, respectively.
In total 8 strains, from Danisco's in-house Culture Collection (DCS) (Danisco A/S, Brabrand, Denmark) were employed as 1 yeast and 1 mould pool in the respective Ranch dressing. Originally, they were isolated e.g. from spoiled ketchup, mayonnaise, Salsa dressing or obtained from official culture collections such as DMSZ.
Before each experiment, a stock culture of each yeast, maintained at −86° C. in suitable broth containing glycerol 50% (v/v), was propagated through two consecutive growth cycles in suitable media (YGC-agar (VWR) pH 5.1+0.2; YM Broth (Becton, Dickinson and company) at pH 6.0±0.2 at and temperature (25° C.). The overnight cultures are diluted in saline solution to obtain working cultures. A cocktail of the yeasts was generated by adding equal cell counts of each culture into a sterile container and mixed appropriately. The yeast cocktail was diluted and inoculated into the product in order to achieve the final desired concentration. Pool counts were verified via plate count. Mould spores were prepared as follows: approx. 2 ml of sterile demineralised water was used to wash the spores off an out-grown mould cultivar (minimum 5 day old plate). This suspension is transferred to a sterile container. Pool counts were verified via plate count.
The Ranch dressing was assayed a time zero, day 3, day 7, day 14, bi-weekly thereafter until week 13 (day 90) and every 4 to 6 weeks until week 29. CFU/g was detected for 3 samples from each batch inoculated with yeast. Before each sampling (closed jar), the sample was thoroughly mixed. 10 gram sample were aseptically pulled from each jar and diluted with peptone water. Each sample was stomached (1 min, normal setting) plated in duplicate onto YGC agar (VWR), PC agar and MRS agar (VWR), and incubated at 25° C. for 5 and 7 days and 37° C. for 3 days, respectively.

[2] = system: native flora of Lactic acid bacteria; test: Salsa sauce fresh challenge study, native lactic acid bacteria on MRS-agar; format: cell-based; conditions: for Cell counts on MRS-agar (native Lactic acid bacteria): Salsa sauce 4° C., FP1000-D1 1%, FP1000-D2 1%, MG200 1%, Potassium Sorbate 0.1%
Procedure: as §1, with “incubated in the dark” for “incubated”, “chilled” for “ambient”, “(4°” for “(20°”, “(≧1.0E+06” for “(≧1.0E+05”
The Salsa sauces were assayed at time zero, day 3, day 7, day 14 and were plated bi-weekly thereafter until day 92. CFU/g was detected for 3 samples from each batch inoculated with yeast. Before each sampling (closed jar), the sample was thoroughly mixed, 10 gram sample were aseptically pulled from each jar and diluted with peptone water. Each sample was stomached (1 min, normal setting) plated in duplicate onto YGC agar (VWR) and MRS (VWR), and incubated at 25° C. for 5 days and 37° C. for 3 days, respectively.

[3] = Ranch dressing challenge study, pH measurement; format: physicochemical; conditions: 0.1%, non-inoculated sample
Description: A pH measurement of non-inoculated sample material took place at every sampling date using a Mettler Toledo Seven Easy pH meter.

[4] = system: pool of 4 mould species (Penicillium sp DCS 1380, Aspergillus versicolor DCS 1069, Aspergillus parasiticus DCS 709, Mucor sp DCS 1140); test: Salsa sauce fresh challenge study, mould growth; format: cell-based; conditions: Salsa sauce 4° C.; blends 1%
Procedure: Each batch was split (scheme table 15) in probes of 90 gram and placed in sterile jars. 21 probes of each batch were inoculated with the desired level of yeast and 5 probes of each batch were inoculated with mould spores, respectively at a targeted inoculation rate of 300 to 800 CFU/g.
as §1, with “incubated in the dark” for “incubated”, “chilled” for “ambient”, “(4°” for “(20°”, “(≧1.0E+06” for “(≧1.0E+05”
Mould spores were prepared as follows: approx. 2 ml of sterile demineralised water was used to wash the spores off an out-grown mould cultivar (minimum 5 day old plate). This suspension is transferred to a sterile container. Pool counts were verified via plate count.
5 samples from each batch inoculated with mould were visually analysed for mould growth.

C/C=C/C=C/C(=O)[O-].[K+] [Potassium Sorbate, potassium sorbate]
initial reduction of the inoculated cell load ([1]; Ranch dressing 20° C., FP1000 D1/D2 1%, MicroGARD 200 1%, potassium sorbate 0.1%): 2 log
Cell counts on YGC-agar to determine the yeast growth ([1]; day 0): 3.20E+02 CFU/g
Cell counts on YGC-agar to determine the yeast growth ([1]; day 3): 1.70E+02 CFU/g
Cell counts on YGC-agar to determine the yeast growth ([1]; day 7): 7.50E+01 CFU/g
Cell counts on YGC-agar to determine the yeast growth ([1]; day 14): 1.00E+01 CFU/g
Cell counts on YGC-agar to determine the yeast growth ([1]; day 28): 1.00E+01 CFU/g
Cell counts on YGC-agar to determine the yeast growth ([1]; day 42): 1.00E+01 CFU/g
Cell counts on YGC-agar to determine the yeast growth ([1]; day 56): 1.00E+01 CFU/g
Cell counts on YGC-agar to determine the yeast growth ([1]; day 64): 1.00E+01 CFU/g
Cell counts on YGC-agar to determine the yeast growth ([1]; day 90): 1.00E+01 CFU/g
Cell counts on YGC-agar to determine the yeast growth ([1]; day 157): 1.00E+01 CFU/g
Cell counts on YGC-agar to determine the yeast growth ([1]; day 198): 1.00E+01 CFU/g
time after which no more colonies were detected on MRS-agar ([2]; Salsa sauce, potassium sorbate 0.1%): 42 days
Cell counts on MRS-agar (native Lactic acid bacteria) ([2]; day 0): 4.75E+02
Cell counts on MRS-agar (native Lactic acid bacteria) ([2]; day 2): 1.50E+03
Cell counts on MRS-agar (native Lactic acid bacteria) ([2]; day 5): 1.40E+02
Cell counts on MRS-agar (native Lactic acid bacteria) ([2]; day 7): 1.30E+03
Cell counts on MRS-agar (native Lactic acid bacteria) ([2]; day 14): 5.38E+02
Cell counts on MRS-agar (native Lactic acid bacteria) ([2]; day 28): 4.30E+01
Cell counts on MRS-agar (native Lactic acid bacteria) ([2]; day 41): <1.00E+01
Cell counts on MRS-agar (native Lactic acid bacteria) ([2]; day 55): <1.00E+01
Cell counts on MRS-agar (native Lactic acid bacteria) ([2]; day 93): <1.00E+01
pH development of the Ranch dressing batch ([3]; day 0): 4.02
pH development of the Ranch dressing batch ([3]; day 3): 4.00
pH development of the Ranch dressing batch ([3]; day 7): 4.02
pH development of the Ranch dressing batch ([3]; day 14): 4.00
pH development of the Ranch dressing batch ([3]; day 28): 3.94
pH development of the Ranch dressing batch ([3]; day 42): 3.96
pH development of the Ranch dressing batch ([3]; day 56): 3.96
pH development of the Ranch dressing batch ([3]; day 64): 3.95
pH development of the Ranch dressing batch ([3]; day 90): 3.96
pH development of the Ranch dressing batch ([3]; day 157): 3.92
pH development of the Ranch dressing batch ([3]; day 198): 3.94
control of mould outgrowth (plate count in yeast inoculated samples) [4]: 12 weeks
